Measurements as given in patent US20180348231A1, “LIGAND INDUCIBLE POLYPEPTIDE COUPLER SYSTEM” (Intrexon Corporation, priority 2015, published 2018).
“Also recorded” adds a separate entry of the source.

T1: Cluc_RxR
T1 construct: Expressed in transfected 293T cells
T1 chain: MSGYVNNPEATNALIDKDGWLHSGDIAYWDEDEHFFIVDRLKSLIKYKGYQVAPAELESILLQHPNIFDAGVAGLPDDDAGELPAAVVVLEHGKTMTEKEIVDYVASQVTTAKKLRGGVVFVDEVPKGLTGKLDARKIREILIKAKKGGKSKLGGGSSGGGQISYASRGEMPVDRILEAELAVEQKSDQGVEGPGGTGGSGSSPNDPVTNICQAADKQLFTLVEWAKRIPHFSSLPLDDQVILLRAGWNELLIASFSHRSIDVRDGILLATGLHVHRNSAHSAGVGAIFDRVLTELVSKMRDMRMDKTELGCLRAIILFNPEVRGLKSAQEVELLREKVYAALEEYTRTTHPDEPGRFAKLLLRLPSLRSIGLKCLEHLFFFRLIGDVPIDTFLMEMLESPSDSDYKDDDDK


Columns and labels:
STAT1 = molecular target: T2, STAT1 (Homo sapiens, UniProt P42224); assay: Split fLuc bioluminescence assay, STAT1 positive control; assay type: cell-based; settings: Ligand − and +, FIG. 7
T2 construct: expressed in transfected cells; host or cells: HEK293 / 293T cells

EcR_Nluc+Cluc_EcR = assay: Split fLuc bioluminescence assay, EcR-EcR homodimerization; assay type: cell-based; settings: upon ligand addition, FIGS. 11 and 12
Experimental: (§1) Experiments were performed to test if nuclear receptor domains (i.e., EcR and RxR polypeptides) could be induced to homodimerize upon addition of ligand (FIGS. 11 and 12). STAT1 was used as control polypeptide since it is reported to self dimerize independent of ligand addition. Abbreviations in the figures are:
“EcR-EcR” means “EcR_Nluc+Cluc_EcR” which is a luciferase polypeptide split into two halves, such that an EcR polypeptide is fused to the N-terminus of a luciferase polypeptide fragment (EcR_Nluc) and another fragment of luciferase has an EcR polypeptide fused to its C-terminal end (Cluc_EcR); thereby activating luciferase (generation of bioluminescence) upon EcR homodimerization;

RxR domains = molecular target: T3, RxR domains (Homo sapiens, UniProt P28702, A451V/A495S/C475T/D450E/E481D/K452R/K476R/K478T/K511R/N456S/P457A/Q477T/Q482E/Q483P/S455K/S458Q/S470A/T473E/T516V/V462L/Y479H); assay: Split fLuc bioluminescence assay, RxR homodimerization; assay type: cell-based; settings: FIGS. 11 and 12
T3 construct: expressed in transfected cells
Experimental: as §1
“RxR” is Retinoid X receptor;

[1] = system: split fLuc fused to EcR and RXR domains; assay: Split firefly luciferase (fLuc) bioluminescence assay, EcR-RXR ligand inducible polypeptide coupler; assay type: cell-based
Experimental: (§2) HEK293 cells were transfected with the split fLuc fused to EcR and RXR domains as follows:
(§3) A day before transfection, 10,000 cells (293T cells) were plated into each well of a 96 well plate containing 100 μl of growth medium (Dulbecco's Modified Eagle's Medium with 10% Fetal Bovine Serum) without antibiotics. Plasmids in pairs, RxR Nluc with Cluc EcR and EcR_ Nluc with Cluc_ RxR (see FIG. 8; amino acid sequences for the constructs depicted in FIG. 8 are provided as SEQ ID NOs: 87-92, respectively. SEQ ID NOs: 91 and 92 correspond to the EcR and RXR amino sequences, respectively, employed in the constructs of FIG. 8), were transfected with Lipofectamine® 2000, according to manufacturer's specifications. Briefly, individual plasmid DNA (0.2 μg) and 0.5 μl of Lipofectamine 2000® was diluted in 25.0 μl of OptiMEM® I Reduced Serum Medium and incubated for 5 minutes at room temperature, volumes were doubled for co-transfections. Diluted plasmid DNA was combined with diluted Lipofectamine® 2000 and incubated for 20 minutes at room temperature. 50 μl of the DNA/Lipofectamine® 2000 complex was added to each well of the 96 well plate. Cells were incubated at 37° C. in a 5% CO2 incubator for 24 hours, prior to addition of the activating ligand Veledimex. […]

293T cells = assay: Bioluminescence assay, mock (no vector), activating ligand alone; assay type: cell-based; settings: negative control, no split fLuc vectors; FIG. 7
Experimental: A day before transfection, 10,000 cells (293T cells) were plated into each well of a 96 well plate containing 100 μl of growth medium (Dulbecco's Modified Eagle's Medium with 10% Fetal Bovine Serum) without antibiotics. Plasmids in pairs, RxR Nluc with Cluc EcR and EcR_ Nluc with Cluc_ RxR (see FIG. 8; amino acid sequences for the constructs depicted in FIG. 8 are provided as SEQ ID NOs: 87-92, respectively. SEQ ID NOs: 91 and 92 correspond to the EcR and RXR amino sequences, respectively, employed in the constructs of FIG. 8), were transfected with Lipofectamine® 2000, according to manufacturer's specifications. Briefly, individual plasmid DNA (0.2 μg) and 0.5 μl of Lipofectamine 2000® was diluted in 25.0 μl of OptiMEM® I Reduced Serum Medium and incubated for 5 minutes at room temperature, volumes were doubled for co-transfections. Diluted plasmid DNA was combined with diluted Lipofectamine® 2000 and incubated for 20 minutes at room temperature. 50 μl of the DNA/Lipofectamine® 2000 complex was added to each well of the 96 well plate. Cells were incubated at 37° C. in a 5% CO2 incubator for 24 hours, prior to addition of the activating ligand Veledimex.
Twenty four hours (24hrs) post-transfection, cell culture media from each well of the 96-well plate was replaced with 100 nM Veledimex activating ligand and Dimethyl sulfoxide-DMSO (negative control). […]

Cluc_RxR = molecular target: T1, Cluc_RxR; assay: split firefly luciferase complementation, with and without Veledimex
Experimental: as §2
as §3, with “CO₂” for “CO2”

T2 sequence (P42224 with tags, fused parts or gaps): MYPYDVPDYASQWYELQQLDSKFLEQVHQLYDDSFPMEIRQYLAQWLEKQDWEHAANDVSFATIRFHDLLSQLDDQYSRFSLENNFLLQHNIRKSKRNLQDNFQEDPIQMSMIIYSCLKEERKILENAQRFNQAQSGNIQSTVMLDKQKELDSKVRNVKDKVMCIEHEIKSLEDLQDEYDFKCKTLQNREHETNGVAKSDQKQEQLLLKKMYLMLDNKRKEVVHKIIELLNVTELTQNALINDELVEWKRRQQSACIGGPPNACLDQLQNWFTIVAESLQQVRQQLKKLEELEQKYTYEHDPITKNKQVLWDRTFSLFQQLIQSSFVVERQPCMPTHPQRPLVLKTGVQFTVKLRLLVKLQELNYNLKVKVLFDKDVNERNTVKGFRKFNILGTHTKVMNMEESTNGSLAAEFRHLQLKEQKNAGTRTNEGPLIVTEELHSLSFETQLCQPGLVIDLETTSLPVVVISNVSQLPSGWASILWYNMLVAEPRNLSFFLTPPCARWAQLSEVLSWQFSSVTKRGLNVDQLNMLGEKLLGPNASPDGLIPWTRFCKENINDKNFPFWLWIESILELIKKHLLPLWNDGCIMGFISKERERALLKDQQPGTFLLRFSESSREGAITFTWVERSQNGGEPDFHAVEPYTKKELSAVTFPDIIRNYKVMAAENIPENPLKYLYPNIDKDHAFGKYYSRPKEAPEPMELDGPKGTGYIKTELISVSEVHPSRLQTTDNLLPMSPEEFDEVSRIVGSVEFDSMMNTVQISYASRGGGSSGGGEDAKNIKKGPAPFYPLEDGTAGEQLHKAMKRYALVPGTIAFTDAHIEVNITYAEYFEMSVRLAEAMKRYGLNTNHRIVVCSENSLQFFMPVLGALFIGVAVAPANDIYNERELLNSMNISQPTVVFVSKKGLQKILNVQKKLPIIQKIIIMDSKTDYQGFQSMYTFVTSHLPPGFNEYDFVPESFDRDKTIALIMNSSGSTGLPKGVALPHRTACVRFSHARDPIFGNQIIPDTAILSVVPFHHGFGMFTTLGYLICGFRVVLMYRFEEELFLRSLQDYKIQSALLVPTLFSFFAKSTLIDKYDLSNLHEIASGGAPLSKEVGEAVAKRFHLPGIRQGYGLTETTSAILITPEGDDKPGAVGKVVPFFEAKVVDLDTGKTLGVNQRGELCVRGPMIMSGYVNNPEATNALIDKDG
T2 sequence (P42224 with tags, fused parts or gaps): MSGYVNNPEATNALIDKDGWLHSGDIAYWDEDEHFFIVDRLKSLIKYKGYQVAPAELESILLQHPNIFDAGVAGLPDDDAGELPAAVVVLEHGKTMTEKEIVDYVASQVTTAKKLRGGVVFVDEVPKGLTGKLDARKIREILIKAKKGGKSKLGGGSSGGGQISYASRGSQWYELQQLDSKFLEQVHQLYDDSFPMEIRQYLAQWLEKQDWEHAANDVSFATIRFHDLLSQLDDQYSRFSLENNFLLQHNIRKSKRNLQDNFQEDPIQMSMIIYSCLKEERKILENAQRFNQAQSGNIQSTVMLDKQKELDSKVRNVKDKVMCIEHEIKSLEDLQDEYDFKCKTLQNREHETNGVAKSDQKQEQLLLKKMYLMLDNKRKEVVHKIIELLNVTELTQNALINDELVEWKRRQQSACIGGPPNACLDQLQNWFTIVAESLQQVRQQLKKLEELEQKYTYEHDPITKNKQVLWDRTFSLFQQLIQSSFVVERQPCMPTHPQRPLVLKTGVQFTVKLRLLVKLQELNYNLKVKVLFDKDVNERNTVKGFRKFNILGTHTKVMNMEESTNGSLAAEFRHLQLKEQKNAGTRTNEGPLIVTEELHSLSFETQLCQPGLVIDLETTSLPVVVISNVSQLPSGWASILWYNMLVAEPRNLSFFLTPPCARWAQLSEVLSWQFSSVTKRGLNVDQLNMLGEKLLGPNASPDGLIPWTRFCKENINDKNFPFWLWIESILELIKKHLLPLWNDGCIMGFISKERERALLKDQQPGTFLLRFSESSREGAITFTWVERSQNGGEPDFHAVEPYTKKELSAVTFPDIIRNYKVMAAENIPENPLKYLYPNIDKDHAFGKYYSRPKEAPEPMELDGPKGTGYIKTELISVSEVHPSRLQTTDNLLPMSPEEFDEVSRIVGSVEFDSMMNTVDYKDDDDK

Molecule	Signal of the positive control (STAT1 split fLuc) (STAT1)	EcR domain homodimerization (bioluminescence) (EcR_Nluc+Cluc_EcR)	RxR domain homodimerization (bioluminescence) (RxR domains)	RxR-EcR heterodimerization (bioluminescence) ([1]; EcR_Nluc+Cluc_RXR, Example 2, FIGS. 11 and 12)	fLuc signal (bioluminescence) ([1]; cells transfected with split fLuc fused to EcR and RXR, 100 nM Veledimex, 6 hours after addition, FIG. 7, listed as activating ligand)	fLuc reading, activating ligand alone (293T cells)	binding result (Cluc_RxR)
CCC[C@@H](N(NC(=O)c1cccc(OC)c1CC)C(=O)c1cc(C)cc(C)c1)C(C)(C)C [Veledimex]	unaffected	statistically significant homodimerization of EcR domains	homodimerize independent of ligand	strongest signal (bioluminescence) was observed	fLuc signal was detected; also recorded: a clear fLuc signal is generated; also recorded: drives split fLuc signal only in the presence of activating ligand	only background readings	–
RxR Nluc (other, also called R×R Nluc; RXR-fLuc) MDYKDDDDKEMPVDRILEAELAVEQKSDQGVEGPGGTGGSGSSPNDPVTNICQAADKQLFTLVEWAKRIPHFSSLPLDDQVILLRAGWNELLIASFSHRSIDVRDGILLATGLHVHRNSAHSAGVGAIFDRVLTELVSKMRDMRMDKTELGCLRAIILFNPEVRGLKSAQEVELLREKVYAALEEYTRTTHPDEPGRFAKLLLRLPSLRSIGLKCLEHLFFFRLIGDVPIDTFLMEMLESPSDSQISYASRGGGSSGGGEDAKNIKKGPAPFYPLEDGTAGEQLHKAMKRYALVPGTIAFTDAHIEVNITYAEYFEMSVRLAEAMKRYGLNTNHRIVVCSENSLQFFMPVLGALFIGVAVAPANDIYNERELLNSMNISQPTVVFVSKKGLQKILNVQKKLPIIQKIIIMDSKTDYQGFQSMYTFVTSHLPPGFNEYDFVPESFDRDKTIALIMNSSGSTGLPKGVALPHRTACVRFSHARDPIFGNQIIPDTAILSVVPFHHGFGMFTTLGYLICGFRVVLMYRFEEELFLRSLQDYKIQSALLVPTLFSFFAKSTLIDKYDLSNLHEIASGGAPLSKEVGEAVAKRFHLPGIRQGYGLTETTSAILITPEGDDKPGAVGKVVPFFEAKVVDLDTGKTLGVNQRGELCVRGPMIMSGYVNNPEATNALIDKDG	–	–	–	–	–	–	binds
